According to ChEMBL document CHEMBL1149725, “4-acetylaplykurodin B and aplykurodinone B, two ichthyotoxic degraded sterols from the Mediterranean mollusk Aplysia fasciata” (J Nat Prod, 1992):

Legend:
Type in all cases: organism-based
Conditions in all cases: in vivo; call rule not given here
Carassius auratus = assay: Ichthyotoxicity in Carassius auratus at 60 ug/cm'2 by antifeedant assay
Artemia salina = assay: Toxicity in Artemia salina
Gambusia affinis = assay: Toxicity in Gambusia affinis at 10 ppm

SMILES: CC(=O)O[C@H]1CC[C@@]2(C)[C@H]3[C@H]1CC(=O)O[C@H]3C[C@@H]2[C@H](C)CCC=C(C)C [4-ACETYLAPLYKURODIN B]
- Activity (Carassius auratus): Active
- LC50 (Artemia salina): 29.1 ppm
- Activity (Gambusia affinis): Toxic

SMILES: CC(C)=CCC[C@@H](C)[C@H]1C[C@@H]2OC(=O)C[C@H]3C(=O)CC[C@@]1(C)[C@H]23 [APLYKURODINONE]
- Activity (Carassius auratus): Active
- Activity (Gambusia affinis): Toxic
